Reference: the supplement of paper PMC9663587

Legend:
Assay in all cases: GR value, 72 h; higher = faster growth (1 = untreated, <0 = killing);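 further: breast cancer and non-malignant breast epithelial lines, nine half-log doses, viable cells counted by Hoechst and LIVE/DEAD dye imaging versus time-zero plates and DMSO controls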
SHP099 = compound: CC1(CCN(CC1)C2=CN=C(C(=N2)N)C3=C(C(=CC=C3)Cl)Cl)N [SHP099]
[1] = compound: COc1ccc2c(c1)[C@]1(C[C@H]1c1ccc3c(/C=C/c4ccc(CN5C[C@@H](C)O[C@@H](C)C5)cc4)n[nH]c3c1)C(=O)N2
Taselisib/GDC0032 = compound: Cc1nc(-c2cn3c(n2)-c2ccc(-c4cnn(C(C)(C)C(N)=O)c4)cc2OCC3)n(C(C)C)n1 [Taselisib/GDC0032]
Cabozantinib = compound: COc1cc2nccc(Oc3ccc(NC(=O)C4(C(=O)Nc5ccc(F)cc5)CC4)cc3)c2cc1OC [Cabozantinib]
Tivantinib/ARQ197 = compound: O=C1NC(=O)[C@@H](c2cn3c4c(cccc24)CCC3)[C@@H]1c1c[nH]c2ccccc12 [Tivantinib/ARQ197]
Doxorubicin = compound: COc1cccc2c1C(=O)c1c(O)c3c(c(O)c1C2=O)C[C@@](O)(C(=O)CO)C[C@@H]3O[C@H]1C[C@H](N)[C@H](O)[C@H](C)O1 [Doxorubicin]
Ceritinib/LDK378 = compound: Cc1cc(Nc2ncc(Cl)c(Nc3ccccc3S(=O)(=O)C(C)C)n2)c(OC(C)C)cc1C1CCNCC1 [Ceritinib/LDK378]
[2] = compound: CNc1nc(-c2ccc3c(N)n[nH]c3c2)cc(N2C[C@@H](C(=O)NC3CCCCC3)CC[C@H]2C)n1
Ipatasertib/GDC0068 = compound: CC(C)NC[C@@H](C(=O)N1CCN(c2ncnc3c2[C@H](C)C[C@H]3O)CC1)c1ccc(Cl)cc1 [Ipatasertib/GDC0068]
AZD6738 = compound: C[C@@H]1COCCN1c1cc(C2([S@](C)(=N)=O)CC2)nc(-c2cc[nH]c3nccc2-3)n1 [AZD6738]
Saracatinib/AZD0530 = compound: CN1CCN(CCOc2cc(OC3CCOCC3)c3c(Nc4c(Cl)ccc5c4OCO5)ncnc3c2)CC1 [Saracatinib/AZD0530]
AZD7762 = compound: NC(=O)Nc1cc(-c2cccc(F)c2)sc1C(=O)N[C@H]1CCCNC1 [AZD7762]

AU565 was tested, and the GR value (SHP099; 0.001 µM) was 0.972 GR, the GR value (SHP099; 0.003162 µM) was 0.94 GR and the GR value (SHP099; 0.01 µM) was 0.815 GR. For the same cell line, the GR value (SHP099; 0.03162 µM) was 1.07 GR, the GR value (SHP099; 0.1 µM) was 1 GR and the GR value (SHP099; 0.3162 µM) was 0.949 GR. The GR value (SHP099; 1 µM) was 0.925 GR, the GR value (SHP099; 3.162 µM) was 0.932 GR and the GR value (SHP099; 10 µM) was 0.939 GR. For the same cell line, the GR value ([1]; 0.0001 µM) was 0.968 GR, the GR value ([1]; 0.0003162 µM) was 0.96 GR and the GR value ([1]; 0.001 µM) was 0.874 GR. It also gave a GR value ([1]; 0.003162 µM) of 0.602 GR, a GR value ([1]; 0.01 µM) of -0.128 GR and a GR value ([1]; 0.03162 µM) of -0.147 GR. For the same cell line, the GR value ([1]; 0.1 µM) was -0.161 GR, the GR value ([1]; 0.3162 µM) was -0.168 GR and the GR value ([1]; 1 µM) was -0.109 GR. The GR value (Taselisib/GDC0032; 0.001 µM) was 0.728 GR, the GR value (Taselisib/GDC0032; 0.003162 µM) was 0.58 GR and the GR value (Taselisib/GDC0032; 0.01 µM) was 0.208 GR. It also gave a GR value (Taselisib/GDC0032; 0.03162 µM) of -0.0424 GR, a GR value (Taselisib/GDC0032; 0.1 µM) of -0.111 GR and a GR value (Taselisib/GDC0032; 0.3162 µM) of -0.171 GR. The GR value (Taselisib/GDC0032; 1 µM) was -0.209 GR, the GR value (Taselisib/GDC0032; 3.162 µM) was -0.225 GR and the GR value (Taselisib/GDC0032; 10 µM) was -0.538 GR. The GR value (Cabozantinib; 0.001 µM) was 1.03 GR, the GR value (Cabozantinib; 0.003162 µM) was 1.04 GR and the GR value (Cabozantinib; 0.01 µM) was 1.03 GR. The GR value (Cabozantinib; 0.03162 µM) was 1.06 GR, the GR value (Cabozantinib; 0.1 µM) was 1.06 GR and the GR value (Cabozantinib; 0.3162 µM) was 1.12 GR. It also gave a GR value (Cabozantinib; 1 µM) of 0.997 GR, a GR value (Cabozantinib; 3.162 µM) of 1.02 GR and a GR value (Cabozantinib; 10 µM) of 0.309 GR. It also gave a GR value (Tivantinib/ARQ197; 0.001 µM) of 1.08 GR, a GR value (Tivantinib/ARQ197; 0.003162 µM) of 1.04 GR and a GR value (Tivantinib/ARQ197; 0.01 µM) of 1.1 GR. The GR value (Tivantinib/ARQ197; 0.03162 µM) was 1.03 GR, the GR value (Tivantinib/ARQ197; 0.1 µM) was 0.841 GR and the GR value (Tivantinib/ARQ197; 0.3162 µM) was 0.191 GR. It also gave a GR value (Tivantinib/ARQ197; 1 µM) of -0.542 GR, a GR value (Tivantinib/ARQ197; 3.162 µM) of -0.468 GR and a GR value (Tivantinib/ARQ197; 10 µM) of -0.479 GR. For the same cell line, the GR value (Doxorubicin; 0.0003162 µM) was 1.09 GR, the GR value (Doxorubicin; 0.001 µM) was 1.03 GR and the GR value (Doxorubicin; 0.003162 µM) was 1.05 GR. It also gave a GR value (Doxorubicin; 0.01 µM) of 1.01 GR, a GR value (Doxorubicin; 0.03162 µM) of 0.553 GR and a GR value (Doxorubicin; 0.1 µM) of -0.11 GR. It also gave a GR value (Doxorubicin; 0.3162 µM) of -0.234 GR, a GR value (Doxorubicin; 1 µM) of -0.385 GR and a GR value (Doxorubicin; 3.162 µM) of -0.452 GR. The GR value (Ceritinib/LDK378; 0.001 µM) was 1.01 GR, the GR value (Ceritinib/LDK378; 0.003162 µM) was 0.971 GR and the GR value (Ceritinib/LDK378; 0.01 µM) was 1 GR. For the same cell line, the GR value (Ceritinib/LDK378; 0.03162 µM) was 1.01 GR, the GR value (Ceritinib/LDK378; 0.1 µM) was 0.983 GR and the GR value (Ceritinib/LDK378; 0.3162 µM) was 0.993 GR. For the same cell line, the GR value (Ceritinib/LDK378; 1 µM) was 0.887 GR, the GR value (Ceritinib/LDK378; 3.162 µM) was 0.479 GR and the GR value ([2]; 0.001 µM) was 0.974 GR. For the same cell line, the GR value ([2]; 0.003162 µM) was 0.901 GR, the GR value ([2]; 0.01 µM) was 0.723 GR and the GR value ([2]; 0.03162 µM) was 0.933 GR. It also gave a GR value ([2]; 0.1 µM) of 0.894 GR, a GR value ([2]; 0.3162 µM) of 0.766 GR and a GR value ([2]; 1 µM) of 0.655 GR. It also gave a GR value ([2]; 3.162 µM) of 0.747 GR, a GR value ([2]; 10 µM) of 0.392 GR and a GR value (Ipatasertib/GDC0068; 0.001 µM) of 1.03 GR. The GR value (Ipatasertib/GDC0068; 0.003162 µM) was 1.08 GR, the GR value (Ipatasertib/GDC0068; 0.01 µM) was 1.03 GR and the GR value (Ipatasertib/GDC0068; 0.03162 µM) was 0.996 GR. It also gave a GR value (Ipatasertib/GDC0068; 0.1 µM) of 0.976 GR, a GR value (Ipatasertib/GDC0068; 0.3162 µM) of 0.809 GR and a GR value (Ipatasertib/GDC0068; 1 µM) of 0.772 GR. For the same cell line, the GR value (Ipatasertib/GDC0068; 3.162 µM) was 0.55 GR, the GR value (Ipatasertib/GDC0068; 10 µM) was 0.289 GR and the GR value (AZD6738; 0.001 µM) was 0.973 GR. For the same cell line, the GR value (AZD6738; 0.003162 µM) was 0.919 GR, the GR value (AZD6738; 0.01 µM) was 1.05 GR and the GR value (AZD6738; 0.03162 µM) was 1.14 GR. The GR value (AZD6738; 0.1 µM) was 1 GR, the GR value (AZD6738; 0.3162 µM) was 0.982 GR and the GR value (AZD6738; 1 µM) was 0.897 GR. For the same cell line, the GR value (AZD6738; 3.162 µM) was 1.08 GR, the GR value (AZD6738; 10 µM) was 0.281 GR and the GR value (Saracatinib/AZD0530; 0.001 µM) was 1 GR. It also gave a GR value (Saracatinib/AZD0530; 0.003162 µM) of 1.03 GR, a GR value (Saracatinib/AZD0530; 0.01 µM) of 0.984 GR and a GR value (Saracatinib/AZD0530; 0.03162 µM) of 1.03 GR. For the same cell line, the GR value (Saracatinib/AZD0530; 0.1 µM) was 0.952 GR, the GR value (Saracatinib/AZD0530; 0.3162 µM) was 0.942 GR and the GR value (Saracatinib/AZD0530; 1 µM) was 0.86 GR. The GR value (Saracatinib/AZD0530; 3.162 µM) was 0.671 GR, the GR value (Saracatinib/AZD0530; 10 µM) was 0.162 GR and the GR value (AZD7762; 0.001 µM) was 1.01 GR. It also gave a GR value (AZD7762; 0.003162 µM) of 1.01 GR, a GR value (AZD7762; 0.01 µM) of 1.08 GR and a GR value (AZD7762; 0.03162 µM) of 1.03 GR. For the same cell line, the GR value (AZD7762; 0.1 µM) was 0.976 GR, the GR value (AZD7762; 0.3162 µM) was 0.756 GR and the GR value (AZD7762; 1 µM) was 0.41 GR. It also gave a GR value (AZD7762; 3.162 µM) of -0.179 GR and a GR value (AZD7762; 10 µM) of -0.57 GR.
